Measurements reported in PMC8019157 (Antiviral research, 2021).

What was measured:
[1] = target: rabbit skeletal muscle ryanodine receptor Ca^2+ release channel (RyR1) (Oryctolagus cuniculus, UniProt P11716); assay: [^3H]ryanodine binding/displacement assay with SR membrane vesicles
SERCA1 [2] = target: T1, SERCA1 (Oryctolagus cuniculus, UniProt P04191); assay: ATP-dependent ^45Ca^2+ accumulation by longitudinal SR vesicles; assay type: biochemical, rabbit; conditions: 0 – 31.2 μM, 20 min at 37°C
RyR1 = RyR1 (Oryctolagus cuniculus, UniProt P11716); assay: Lipid bilayer single channel recordings of purified RyR1; assay type: biochemical, rabbit
RyR1, sequence (P11716 whole entry): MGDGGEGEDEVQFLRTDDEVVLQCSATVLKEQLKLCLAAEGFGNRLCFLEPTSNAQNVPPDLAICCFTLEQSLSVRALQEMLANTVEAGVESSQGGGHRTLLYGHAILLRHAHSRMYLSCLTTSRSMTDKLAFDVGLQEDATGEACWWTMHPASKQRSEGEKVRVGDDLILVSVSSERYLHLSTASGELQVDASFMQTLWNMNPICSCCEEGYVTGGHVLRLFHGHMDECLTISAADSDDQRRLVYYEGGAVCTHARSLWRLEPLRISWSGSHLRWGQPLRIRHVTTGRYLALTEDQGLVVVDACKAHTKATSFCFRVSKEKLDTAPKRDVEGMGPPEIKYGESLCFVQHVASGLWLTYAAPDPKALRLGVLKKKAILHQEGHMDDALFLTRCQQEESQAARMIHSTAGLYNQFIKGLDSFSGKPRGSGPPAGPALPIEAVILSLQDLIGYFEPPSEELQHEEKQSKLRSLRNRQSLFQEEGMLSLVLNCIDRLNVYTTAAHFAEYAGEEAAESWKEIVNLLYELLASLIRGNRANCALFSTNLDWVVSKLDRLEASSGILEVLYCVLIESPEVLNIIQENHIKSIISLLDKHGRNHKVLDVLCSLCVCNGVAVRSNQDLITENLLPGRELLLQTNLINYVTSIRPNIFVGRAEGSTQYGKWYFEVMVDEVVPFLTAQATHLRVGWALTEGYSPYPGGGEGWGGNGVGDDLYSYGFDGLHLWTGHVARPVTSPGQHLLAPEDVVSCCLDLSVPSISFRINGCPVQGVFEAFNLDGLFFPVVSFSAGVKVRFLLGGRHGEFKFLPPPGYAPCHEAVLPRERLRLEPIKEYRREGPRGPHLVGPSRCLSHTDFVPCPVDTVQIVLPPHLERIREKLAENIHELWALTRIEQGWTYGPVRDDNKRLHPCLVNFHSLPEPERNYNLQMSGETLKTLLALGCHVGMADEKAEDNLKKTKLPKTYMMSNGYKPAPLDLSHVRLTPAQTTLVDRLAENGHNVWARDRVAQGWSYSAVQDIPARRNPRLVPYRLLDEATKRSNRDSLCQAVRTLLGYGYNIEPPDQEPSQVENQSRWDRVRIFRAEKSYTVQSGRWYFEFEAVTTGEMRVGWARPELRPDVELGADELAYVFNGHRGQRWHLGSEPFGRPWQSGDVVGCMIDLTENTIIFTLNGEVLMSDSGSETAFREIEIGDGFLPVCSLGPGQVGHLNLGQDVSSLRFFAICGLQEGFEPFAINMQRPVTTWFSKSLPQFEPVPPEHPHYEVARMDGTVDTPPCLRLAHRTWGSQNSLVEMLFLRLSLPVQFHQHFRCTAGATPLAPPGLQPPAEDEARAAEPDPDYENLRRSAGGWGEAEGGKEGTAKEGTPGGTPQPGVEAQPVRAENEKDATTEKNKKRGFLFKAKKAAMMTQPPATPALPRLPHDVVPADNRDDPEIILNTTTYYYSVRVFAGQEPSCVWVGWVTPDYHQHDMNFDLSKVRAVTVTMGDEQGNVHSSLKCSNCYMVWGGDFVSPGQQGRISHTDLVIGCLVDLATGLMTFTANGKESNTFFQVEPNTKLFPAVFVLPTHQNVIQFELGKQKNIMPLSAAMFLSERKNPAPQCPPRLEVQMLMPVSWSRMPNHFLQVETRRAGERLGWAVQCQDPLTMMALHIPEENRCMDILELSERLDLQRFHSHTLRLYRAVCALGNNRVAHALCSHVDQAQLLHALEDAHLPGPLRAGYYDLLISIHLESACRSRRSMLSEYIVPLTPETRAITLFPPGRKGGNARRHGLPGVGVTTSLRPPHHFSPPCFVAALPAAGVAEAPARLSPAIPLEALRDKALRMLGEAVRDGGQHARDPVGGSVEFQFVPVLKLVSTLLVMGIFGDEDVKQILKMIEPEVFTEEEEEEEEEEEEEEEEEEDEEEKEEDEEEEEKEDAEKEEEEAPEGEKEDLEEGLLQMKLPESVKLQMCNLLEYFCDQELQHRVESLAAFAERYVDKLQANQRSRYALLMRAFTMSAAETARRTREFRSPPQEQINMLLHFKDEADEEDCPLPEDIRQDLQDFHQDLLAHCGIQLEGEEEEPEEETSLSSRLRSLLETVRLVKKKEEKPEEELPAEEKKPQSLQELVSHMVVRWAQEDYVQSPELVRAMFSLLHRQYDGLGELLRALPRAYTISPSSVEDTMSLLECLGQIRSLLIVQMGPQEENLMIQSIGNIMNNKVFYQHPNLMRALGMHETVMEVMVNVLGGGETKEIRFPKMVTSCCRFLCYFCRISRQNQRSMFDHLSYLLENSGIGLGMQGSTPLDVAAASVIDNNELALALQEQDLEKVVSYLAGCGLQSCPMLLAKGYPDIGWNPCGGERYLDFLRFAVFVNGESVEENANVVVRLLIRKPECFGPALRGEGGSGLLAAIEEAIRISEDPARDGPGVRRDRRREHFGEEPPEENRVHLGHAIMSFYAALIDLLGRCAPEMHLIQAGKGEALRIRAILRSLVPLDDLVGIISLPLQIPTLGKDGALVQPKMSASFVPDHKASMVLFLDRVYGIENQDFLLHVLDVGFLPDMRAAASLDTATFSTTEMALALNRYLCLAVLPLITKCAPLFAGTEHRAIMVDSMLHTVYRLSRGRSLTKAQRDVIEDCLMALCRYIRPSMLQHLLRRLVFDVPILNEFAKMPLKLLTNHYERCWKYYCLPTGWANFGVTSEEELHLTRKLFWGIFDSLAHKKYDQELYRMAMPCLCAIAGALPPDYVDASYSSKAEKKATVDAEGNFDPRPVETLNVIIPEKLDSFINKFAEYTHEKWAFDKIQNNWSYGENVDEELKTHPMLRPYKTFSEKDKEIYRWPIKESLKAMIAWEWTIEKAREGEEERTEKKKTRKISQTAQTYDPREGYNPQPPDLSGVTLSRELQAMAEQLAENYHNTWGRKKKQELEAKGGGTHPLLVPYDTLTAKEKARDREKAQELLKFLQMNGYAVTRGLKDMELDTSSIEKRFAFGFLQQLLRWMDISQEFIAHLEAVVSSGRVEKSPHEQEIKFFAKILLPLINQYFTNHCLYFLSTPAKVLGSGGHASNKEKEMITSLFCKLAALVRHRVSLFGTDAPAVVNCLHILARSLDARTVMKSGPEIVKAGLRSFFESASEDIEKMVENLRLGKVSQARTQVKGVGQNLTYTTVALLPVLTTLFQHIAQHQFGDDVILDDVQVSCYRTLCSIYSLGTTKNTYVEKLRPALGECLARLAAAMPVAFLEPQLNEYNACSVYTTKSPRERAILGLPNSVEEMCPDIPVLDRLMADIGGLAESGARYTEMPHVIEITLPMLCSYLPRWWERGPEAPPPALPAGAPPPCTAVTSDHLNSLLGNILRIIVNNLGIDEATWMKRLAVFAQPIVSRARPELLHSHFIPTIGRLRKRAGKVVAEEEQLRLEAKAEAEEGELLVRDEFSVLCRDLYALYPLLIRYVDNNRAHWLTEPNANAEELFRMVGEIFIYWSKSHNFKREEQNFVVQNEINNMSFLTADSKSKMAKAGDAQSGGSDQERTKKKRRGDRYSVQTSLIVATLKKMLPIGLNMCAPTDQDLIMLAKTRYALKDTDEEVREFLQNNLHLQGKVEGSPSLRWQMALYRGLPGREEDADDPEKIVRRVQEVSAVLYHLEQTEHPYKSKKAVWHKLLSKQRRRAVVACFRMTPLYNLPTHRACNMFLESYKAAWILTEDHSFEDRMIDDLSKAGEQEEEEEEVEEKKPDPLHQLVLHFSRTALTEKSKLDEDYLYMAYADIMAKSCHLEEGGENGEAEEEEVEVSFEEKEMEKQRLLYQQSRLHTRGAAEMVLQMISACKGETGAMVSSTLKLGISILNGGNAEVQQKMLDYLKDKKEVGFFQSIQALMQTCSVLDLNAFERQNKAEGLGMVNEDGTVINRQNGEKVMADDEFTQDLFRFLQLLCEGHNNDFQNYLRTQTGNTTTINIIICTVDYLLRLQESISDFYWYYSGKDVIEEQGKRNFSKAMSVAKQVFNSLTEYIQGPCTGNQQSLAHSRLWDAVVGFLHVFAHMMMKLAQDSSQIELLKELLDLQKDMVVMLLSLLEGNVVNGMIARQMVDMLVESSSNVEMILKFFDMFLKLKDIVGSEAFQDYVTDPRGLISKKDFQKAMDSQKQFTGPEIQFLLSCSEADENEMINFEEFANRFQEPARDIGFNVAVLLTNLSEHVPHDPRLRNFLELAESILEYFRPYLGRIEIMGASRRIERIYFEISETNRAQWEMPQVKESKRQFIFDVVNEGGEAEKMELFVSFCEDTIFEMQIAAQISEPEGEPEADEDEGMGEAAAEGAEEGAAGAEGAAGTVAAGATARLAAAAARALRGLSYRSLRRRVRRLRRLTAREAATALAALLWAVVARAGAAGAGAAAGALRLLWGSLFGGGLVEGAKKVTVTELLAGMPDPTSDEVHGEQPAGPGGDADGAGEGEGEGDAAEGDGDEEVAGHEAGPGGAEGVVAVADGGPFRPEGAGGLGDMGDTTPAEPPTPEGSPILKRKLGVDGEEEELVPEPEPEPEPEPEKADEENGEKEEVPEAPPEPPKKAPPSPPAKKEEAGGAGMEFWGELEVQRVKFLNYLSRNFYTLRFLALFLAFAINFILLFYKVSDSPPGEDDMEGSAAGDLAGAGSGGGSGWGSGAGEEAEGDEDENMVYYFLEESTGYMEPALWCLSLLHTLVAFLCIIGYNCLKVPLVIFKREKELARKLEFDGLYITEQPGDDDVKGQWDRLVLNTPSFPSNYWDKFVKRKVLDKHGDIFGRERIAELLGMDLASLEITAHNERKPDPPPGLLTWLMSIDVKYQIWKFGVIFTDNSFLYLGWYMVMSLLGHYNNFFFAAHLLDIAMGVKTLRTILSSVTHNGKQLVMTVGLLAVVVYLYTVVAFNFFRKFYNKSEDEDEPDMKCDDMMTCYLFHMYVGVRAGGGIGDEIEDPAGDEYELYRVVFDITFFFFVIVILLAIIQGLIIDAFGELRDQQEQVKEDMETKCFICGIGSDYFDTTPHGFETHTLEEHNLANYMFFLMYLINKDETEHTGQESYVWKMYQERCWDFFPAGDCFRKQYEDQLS

[3] = Drug dissolved in ethanol/water; assay type: physicochemical; conditions: room temperature (22 °C), HPLC
[4] = EFV daily dose of up to 600 mg/day, cited from earlier work
SERCA1 [5] = target: T1, SERCA1; assay: SERCA1 ATPase activity; assay type: biochemical, rabbit; conditions: 0 – 20 μM, 20 min at 37°C, with and without A23187
[6] = tested on: C2C12 skeletal muscle myotubes; assay: Live-cell Ca^2+ imaging; assay type: cell-based, Mouse
[7] = Efavirenz 2.50 μM cis, 3.0 μM cis Ca^2+
[8] = Efavirenz 5.00 μM cis, 3.0 μM cis Ca^2+
[9] = Efavirenz 12.50 μM cis, 3.0 μM cis Ca^2+
[10] = Efavirenz 20.00 μM cis, 3.0 μM cis Ca^2+
[11] = Efavirenz 31.20 μM cis, 3.0 μM cis Ca^2+
[12] = Efavirenz […] cis, 3.0 μM cis Ca^2+
[13] = 6 μM, antiretroviral-naïve C2C12 myotubes

rabbit skeletal muscle ryanodine receptor Ca^2+ release channel (RyR1), sequence (P11716 whole entry): as above

In the case of `O=C1Nc2ccc(Cl)cc2[C@@](C#CC2CC2)(C(F)(F)F)O1` [EFV, efavirenz], the “Hill slope of displacement curve” value [1] is reported as 1.6, the “concentrations that enhanced [^3H]ryanodine binding to RyR1” value ([1]; 2 hr at 37°C) is reported as 1 to 10 nM and the “effect on ATP-dependent Ca^2+ transport by SERCA1” value (SERCA1 [2]) is reported as “no effect”. The “time after which the channel went into an irreversible shut state” value (RyR1; 31.2 nM cis EFV (so in the source)) was 90 s, the “increase in Po of RyR1” value (RyR1; 240 nM cis EFV, within 15 sec, 3.0 μM cis Ca^2+) was “eight-fold” and the “conductance of reduced conductance state R1” value (RyR1; 2.5 μM cis EFV) was 233 ± 15 pS. For the same compound, the “reduced conductance state R1, current amplitude” value (RyR1; 2.5 μM cis EFV) was 33 % of maximum, the “duration of R1 state” value (RyR1; 2.5 μM cis EFV, +30 mV) was ~ 375 msec and the “duration of R1 state” value (RyR1; 2.5 μM cis EFV, −30 mV) was ~ 125 msec. The “conductance of reduced conductance state R2” value (RyR1; 5.0 μM cis EFV) was 479 ± 24 pS, the “Closed- maximally opened transitions (Hz)” value (RyR1; [7]) was 1122 ±22 Hz and the “Dwell time closed state” value (RyR1; [7]) was 1.38 ± 0.08. The “Dwell time open state” value (RyR1; [7]) was 0.74 ± 0.06, the “Po (+30 mV)” value (RyR1; [7]) was 0.22 ± 0.01 and the “Closed- maximally opened transitions (Hz)” value (RyR1; [8]) was 1046 ±30 Hz. For the same compound, the “Dwell time closed state” value (RyR1; [8]) was 0.56 ± 0.07, the “Dwell time open state” value (RyR1; [8]) was 1.01 ± 0.01 and the “Po (+30 mV)” value (RyR1; [8]) was 0.59 ± 0.03. For the same compound, the “Closed- maximally opened transitions (Hz)” value (RyR1; [9]) was 1005 ±16 Hz, the “Dwell time closed state” value (RyR1; [9]) was 0.53 ± 0.46 and the “Dwell time open state” value (RyR1; [9]) was 1.03 ± 0.05. For the same compound, the “Po (+30 mV)” value (RyR1; [9]) was 0.69 ± 0.04, the “Closed- maximally opened transitions (Hz)” value (RyR1; [10]) was 1060 ±25 Hz and the “Dwell time closed state” value (RyR1; [10]) was 0.57 ± 0.06. For the same compound, the “Dwell time open state” value (RyR1; [10]) was 0.99 ± 0.04, the “Po (+30 mV)” value (RyR1; [10]) was 0.67 ± 0.04 and the “Closed- maximally opened transitions (Hz)” value (RyR1; [11]) was 1064 ±25 Hz. The “Dwell time closed state” value (RyR1; [11]) was 1.53 ± 0.02, the “Dwell time open state” value (RyR1; [11]) was 0.73 ± 0.06 and the “Po (+30 mV)” value (RyR1; [11]) was 0.38 ± 0.01. The “Closed- maximally opened transitions (Hz)” value (RyR1; [12]) was 1125 ±24 Hz, the “Dwell time closed state” value (RyR1; [12]) was 4.91 ± 0.43 and the “Dwell time open state” value (RyR1; [12]) was 0.61 ± 0.07. For the same compound, the “Po (+30 mV)” value (RyR1; [12]) was 0.08 ± 0.01, the “effect on Po of RyR1 of concentrations lower than 240 nM” value (RyR1; up to 5 minutes after cis addition) was “no effect” and the “fraction dissolved in ethanol/water (1:1)” value [3] was 6.3%. For the same compound, the “stock concentration in ethanol/water (1:1)” value [3] was 1.8 mM, the “plasma Cmax” value [4] was ~ 2.5 μg/ml and the Cmax ([4]; read-out: plasma Cmax) was ~8 µM. For the same compound, the “effect on ATPase activity of SERCA1” value (SERCA1 [5]) was “did not show any significant effect”, the “Ca^2+ transient in C2C12 cells pretreated with 50 μM ryanodine for 20 min” value [6] was “attenuated Ca^2+ transient” and the “duration of the global Ca^2+ transient” value ([6]; 6 μM) was “about 90 sec”. For the same compound, the “effect on plasma membrane of C2C12 cells” value ([6]; 6 μM) was “blebbing”, the “mean peak amplitude of the Ca^2+ transient” value [6, 13] was 3.9 ± 0.3 f.u and the “rate of Ca^2+ rise” value [6, 13] was 0.14 ± 0.01 f.u./sec. For the same compound, the “rate of Ca^2+ transient decay” value [6, 13] was 0.04 ± 0.00 f.u./sec and the “response to a second dose in previously exposed C2C12 cells” value ([6]; second dose 6 μM) was “did not elicit a second Ca^2+ transient”.
